# Assays:
# BTK enzyme = target: T1, BTK enzyme (Homo sapiens, UniProt Q06187); test: In vitro BTK kinase assay: BTK-POLYGAT-LS assay; assay type: biochemical; details: ATP 10 μM, read-out: IC50 (10uMATP)
# T1 construct: purchased Upstate 14-552
# Outline: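 Human BTK activity was measured with final 10 μM ATP and 100 nM polyGAT substrate in pH 7.5 Tris buffer with 10 mM MgCl2, DTT, Triton X-100 and casein.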
# [1] = target: BTK (phospho-BTK) in human whole blood (Homo sapiens, UniProt Q06187); test: In vitro PD assay in human whole blood (pBTK assay)
# Chain of BTK (phospho-BTK) in human whole blood (Q06187 whole entry): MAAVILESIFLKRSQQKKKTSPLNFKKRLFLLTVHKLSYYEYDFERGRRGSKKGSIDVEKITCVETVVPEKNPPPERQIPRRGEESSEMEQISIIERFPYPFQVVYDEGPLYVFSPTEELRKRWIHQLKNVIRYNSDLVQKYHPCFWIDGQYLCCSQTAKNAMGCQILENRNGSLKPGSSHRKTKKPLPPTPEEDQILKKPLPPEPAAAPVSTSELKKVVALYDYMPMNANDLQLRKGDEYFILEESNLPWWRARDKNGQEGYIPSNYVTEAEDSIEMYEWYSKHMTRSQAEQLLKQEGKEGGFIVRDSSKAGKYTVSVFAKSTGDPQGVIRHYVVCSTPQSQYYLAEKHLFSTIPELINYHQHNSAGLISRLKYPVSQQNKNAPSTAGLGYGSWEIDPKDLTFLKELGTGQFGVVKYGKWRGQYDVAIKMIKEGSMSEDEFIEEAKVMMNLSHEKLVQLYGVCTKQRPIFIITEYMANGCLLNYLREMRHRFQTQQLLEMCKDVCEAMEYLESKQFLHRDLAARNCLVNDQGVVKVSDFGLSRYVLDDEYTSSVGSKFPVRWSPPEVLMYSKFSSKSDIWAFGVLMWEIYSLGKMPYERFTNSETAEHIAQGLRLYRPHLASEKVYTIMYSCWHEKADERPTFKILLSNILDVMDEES
# T1 sequence (Q06187 whole entry): as above
IC50 (BTK enzyme),IC50 [1],SMILES
< 10 nM,< 500 nM,"COCCn1cc(Nc2nccc(-c3ccc(CNC(=O)c4cnc(C(C)(C)C)s4)c(C)c3)n2)cn1 [Example I-39, 2-(tert-butyl)-N-(4-(2-((1-(2-methoxyethyl)-1H-pyrazol-4-yl)amino)pyrimidin-4-yl)-2-methylbenzyl)thiazole-5-carboxamide]"
< 10 nM,< 500 nM,"COCCn1cc(Nc2nccc(-c3ccc(CNC(=O)N4CCC(C(C)(C)C)C4)c(C(F)(F)F)c3)n2)cn1 (stereo not shown) [Example I-295, 3-tert-butyl-N-[[4-[2-[[1-(2-methoxyethyl)pyrazol-4-yl]amino]pyrimidin-4-yl]-2-(trifluoromethyl)phenyl]methyl]pyrrolidine-1-carboxamide]"
< 10 nM,< 500 nM,"Cc1cc(-c2cc(Nc3cc4n(n3)CCN(C)C4)ncn2)ccc1CNC(=O)c1cc(C(C)(C)C)on1 [Example I-265, 5-tert-butyl-N-[[2-methyl-4-[6-[(5-methyl-6,7-dihydro-4H-pyrazolo[1,5-a]pyrazin-2-yl)amino]pyrimidin-4-yl]phenyl]methyl]isoxazole-3-carboxamide]"
< 10 nM,< 500 nM,"Cc1cc(-c2cc(Nc3cc4n(n3)CCN(CCO)C4)ncn2)ccc1CNC(=O)c1cnn(C(C)(C)C)c1 [Example I-233, 1-(tert-butyl)-N-(4-(6-((5-(2-hydroxyethyl)-4,5,6,7-tetrahydropyrazolo[1,5-a]pyrazin-2-yl)amino)pyrimidin-4-yl)-2-methylbenzyl)-1H-pyrazole-4-carboxamide]"
< 10 nM,< 500 nM,"Cc1cc(-c2ccnc(Nc3cnn(C)c3)n2)ccc1CN1Cc2nc(C(C)(C)C)sc2C1=O [Example I-12, 2-(tert-butyl)-5-(2-methyl-4-(2-((1-methyl-1H-pyrazol-4-yl)amino)pyrimidin-4-yl)benzyl)-4H-pyrrolo[3,4-d]thiazol-6(5H)-one]"
< 10 nM,< 500 nM,"Cc1cc(-c2cc(Nc3ccn([C@@H]4CCOC4)n3)ncn2)ccc1CNC(=O)c1cnc(C(C)(C)C)s1 [Example I-357, 2-tert-butyl-N-[[2-methyl-4-[6-[[1-[(3R)-tetrahydrofuran-3-yl]pyrazol-3-yl]amino]pyrimidin-4-yl]phenyl]methyl]thiazole-5-carboxamide]"
100 to 999 nM,1500 to 10000 nM,"Cc1cc(-c2ccnc(Nc3cnn(C)c3)n2)ccc1CNC(=O)N1CCN(C(C)(C)C)CC1 [Example I-23, 4-(tert-butyl)-N-(2-methyl-4-(2-((1-methyl-1H-pyrazol-4-yl)amino)pyrimidin-4-yl)benzyl)piperazine-1-carboxamide]"
< 10 nM,< 500 nM,"Cc1cc(-c2ccnc(Nc3cnn(CCO)c3)n2)ccc1CNC(=O)c1cnn(C(C)(C)C)c1 [Example I-250, 1-tert-butyl-N-[[4-[2-[[1-(2-hydroxyethyl)pyrazol-4-yl]amino]pyrimidin-4-yl]-2-methyl-phenyl]methyl]pyrazole-4-carboxamide]"
< 10 nM,< 500 nM,"CN1CC(n2cc(Nc3nccc(-c4ccc(CNC(=O)c5cnn(C(C)(C)C)c5)c(Cl)c4)n3)cn2)C1 [Example I-356, 1-tert-butyl-N-[[2-chloro-4-[2-[[1-(1-methylazetidin-3-yl)pyrazol-4-yl]amino]pyrimidin-4-yl]phenyl]methyl]pyrazole-4-carboxamide]"
< 10 nM,< 500 nM,"Cc1cc(-c2cc(Nc3cc4n(n3)CCN(C)C4C)ncn2)ccc1CNC(=O)c1cnc(C(C)(C)C)s1 (stereo not shown) [Example I-283, 2-tert-butyl-N-[[4-[6-[(4,5-dimethyl-6,7-dihydro-4H-pyrazolo[1,5-a]pyrazin-2-yl)amino]pyrimidin-4-yl]-2-methyl-phenyl]methyl]thiazole-5-carboxamide]"
< 10 nM,< 500 nM,"CCn1cc(Nc2nccc(-c3ccc(CNC(=O)c4cnn(C(C)(C)C)c4)c(C)c3)n2)cn1 [Example I-247, 1-(tert-butyl)-N-(4-(2-((1-ethyl-1H-pyrazol-4-yl)amino)pyrimidin-4-yl)-2-methylbenzyl)-1H-pyrazole-4-carboxamide]"
< 10 nM,1500 to 10000 nM,"Cn1cc(Nc2nccc(-c3ccc4c(c3)CCCC4NC(=O)c3cnc(C(C)(C)C)s3)n2)cn1 (stereo not shown) [Example I-91, 2-(tert-butyl)-N-(6-(2-((1-methyl-1H-pyrazol-4-yl)amino)pyrimidin-4-yl)-1,2,3,4-tetrahydronaphthalen-1-yl)thiazole-5-carboxamide]"
< 10 nM,< 500 nM,"Cc1cc(-c2ccnc(Nc3cnn(C4CC(C(=O)O)C4)c3)n2)ccc1CNC(=O)c1cnc(C(C)(C)C)s1 (stereo not shown) [Example I-44, 3-(4-((4-(4-((2-(tert-butyl)thiazole-5-carboxamido)methyl)-3-methylphenyl)pyrimidin-2-yl)amino)-1H-pyrazol-1-yl)cyclobutanecarboxylic acid]"
< 10 nM,< 500 nM,"CCC1CN(C(=O)NCc2ccc(-c3ccnc(Nc4cnn(C)c4)n3)cc2C)C1 [Example I-238, 3-Ethyl-N-(2-methyl-4-(2-((1-methyl-1H-pyrazol-4-yl)amino)pyrimidin-4-yl)benzyl)azetidine-1-carboxamide]"
< 10 nM,< 500 nM,"Cc1cc(-c2ccnc(Nc3cnn(C4CNC4)c3)n2)ccc1CNC(=O)c1cnc(C(C)(C)C)s1 [Example I-42, N-(4-(2-((1-(azetidin-3-yl)-1H-pyrazol-4-yl)amino)pyrimidin-4-yl)-2-methylbenzyl)-2-(tert-butyl)thiazole-5-carboxamide]"
< 10 nM,< 500 nM,"CCn1cc(Nc2nccc(-c3ccc(CNC(=O)N4CCC(C(C)(C)C)C4)c(C(F)(F)F)c3)n2)cn1 (stereo not shown) [Example I-297, 3-tert-butyl-N-[[4-[2-[(1-ethylpyrazol-4-yl)amino]pyrimidin-4-yl]-2-(trifluoromethyl)phenyl]methyl]pyrrolidine-1-carboxamide]"
< 10 nM,< 500 nM,"Cc1cc(-c2ccnc(Nc3cnn(C)c3)n2)ccc1CNC(=O)N1CC(OCCF)C1 [Example I-307, 3-(2-fluoroethoxy)-N-[[2-methyl-4-[2-[(1-methylpyrazol-4-yl)amino]pyrimidin-4-yl]phenyl]methyl]azetidine-1-carboxamide]"

SMILES,IC50 (BTK enzyme),IC50 [1]
"COCCc1cc(-c2ccnc(Nc3cnn4c3CCC4)n2)ccc1CNC(=O)N1CC(OC(C)(C)C)C1 [Example I-323, 3-tert-butoxy-N-[[4-[2-(5,6-dihydro-4H-pyrrolo[1,2-b]pyrazol-3-ylamino)pyrimidin-4-yl]-2-(2-methoxyethyl)phenyl]methyl]azetidine-1-carboxamide]",< 10 nM,< 500 nM
"Cn1cc(Nc2nccc(-c3ccc(CNC(=O)N4CC(OC(C)(C)C)C4)c(CCO)c3)n2)cn1 [Example I-190, 3-(tert-butoxy)-N-(2-(2-hydroxyethyl)-4-(2-((1-methyl-1H-pyrazol-4-yl)amino)pyrimidin-4-yl)benzyl)azetidine-1-carboxamide]",< 10 nM,< 500 nM
"CC(C)(C)OC1CN(C(=O)NCc2ccc(-c3ccnc(Nc4cnn(C5CC5)c4)n3)cc2C(F)(F)F)C1 [Example I-294, 3-tert-butoxy-N-[[4-[2-[(1-cyclopropylpyrazol-4-yl)amino]pyrimidin-4-yl]-2-(trifluoromethyl)phenyl]methyl]azetidine-1-carboxamide]",< 10 nM,< 500 nM

# Reference: patent US10759783B2, “Biaryl inhibitors of Bruton'S tyrosine kinase” (BIOGEN MA INC., priority 2013, dated 2020)
